{
  "source": "patent US9522888B2",
  "about": "“Substituted bicyclic compounds” (BRISTOL-MYERS SQUIBB COMPANY, priority 2014, dated 2016)",
  "key": {"[1]": {"system": "circulating lymphocytes", "assay": "Blood Lymphocyte Reduction (BLR) assay in rat", "format": "in vivo, Lewis rats", "conditions": "oral; for Percent reduction vs. control at 24 hr post-dose: blood lymphocytes; for lymphocyte reduction: rodent BLR assay, 24 hours post-dose, versus vehicle treated group", "procedure": "(§1) Blood Lymphocyte Reduction (BLR) Assay in Rodent:\n(§2) Lewis rats or BALB/c mice were dosed orally with vehicle alone (polyethylene glycol 300, “PEG300”) or with test compounds. Compounds were dosed as a solution or suspension in the vehicle, adjusted to reflect the free amount of test article in the event that salt forms are utilized. Blood was drawn at 24 hr and blood lymphocyte counts were determined on an ADVIA 120 Hematology Analyzer (Siemens Healthcare Diagnostics). The results were measured as a reduction in the percentage of circulating lymphocytes as compared to the vehicle treated group at the time of measurement. The results represent the average results of all animals within each treatment group (n=2-4)."}, "[2]": {"system": "circulating lymphocytes", "assay": "Blood Lymphocyte Reduction (BLR) assay in mouse", "format": "in vivo, BALB/c mice", "conditions": "oral; for lymphocyte reduction: mice, 24 hours post dose", "procedure": "as §1, §2"}, "[3]": {"system": "adjuvant-induced arthritis, hind paw volume", "assay": "Rat Adjuvant Induced Arthritis Assay (AA)", "format": "in vivo, Male Lewis rats", "conditions": "Lewis rat; for paw swelling (mL) on day 20, Mean / paw swelling (mL) on day 22, Mean: once daily oral prophylactic; for inhibition of disease progression as measured by reduced paw swelling: prophylactic oral dosing regimen, result in words", "procedure": "Rat Adjuvant Induced Arthritis Assay (AA) The rat adjuvant-induced arthritis model is an animal model for human rheumatoid arthritis. Male Lewis rats (150-175 g; Harlan, n=8 treatment group) were immunized at the base of the tail with 100 μl of 10 mg/ml freshly ground Mycobacterium butyricum (Difco Laboratories) in incomplete Freund's adjuvant (sigma). Animals were dosed once daily with the test article (as a solution or suspension in the vehicle) or vehicle alone (polyethylene glycol 300, “PEG300”) starting from the day of immunization. The volumes of their hind paws were measured in a water displacement plethysmometer (Ugo Basile, Italy). The baseline paw measurements were taken before onset of the disease (between day 7 to day 10). […] All procedures involving animals were reviewed and approved by the Institutional Animal Care Use Committee."}, "[4]": {"system": "MOG35-55 induced EAE, clinical score", "assay": "Mouse Experimental Autoimmune Encephalomyelitis Assay (EAE)", "format": "in vivo, C57BL/6 mice", "conditions": "C57Bl/6 mice; for Clinical scores on day 21 (Mean): mouse EAE, prophylactic oral dosing"}, "[5]": {"system": "guinea pig myelin basic protein induced EAE, clinical score", "assay": "Rat Experimental Autoimmune Encephalomyelitis (EAE)", "format": "in vivo, Female Lewis rats", "conditions": "Lewis rat; for Clinical Score on Day 11 (Mean): rat EAE, prophylactic oral dosing", "procedure": "Rat Experimental Autoimmune Encephalomyelitis (EAE):\nFemale Lewis rats (150-200 g; Harlan) were immunized at the base of the tail with 0.1 ml of a complete Freund's adjuvant emulsion containing 0.5 mg/mL guinea pig myelin basic protein (Genemed Synthesis) and 2 mg/mL Mycobacterium butyricum (Difco). Beginning on Day 7, rats (n=11/group) were scored individually at least 3×/wk according to the following scheme:\nAverage clinical scores were calculated for each treatment group on each day of assessment."}, "[6]": {"conditions": "prophylactic oral dosing regimen, result in words"}},
  "note": "“Also recorded” adds a separate entry of the source.",
  "data": [
    {"smiles": "COCCCCCC1CCc2cc([C@@H]3CC[C@](N)(CO)C3)ccc2C1", "note": "(single isomer, unassigned) [Example 674]", "values": [
      {"measurement": "Percent reduction vs. control at 24 hr post-dose", "setting": "[1]; 0.1 mg/kg", "value": 30, "unit": "%"},
      {"measurement": "Percent reduction vs. control at 24 hr post-dose", "setting": "[1]; 0.3 mg/kg", "value": 73, "unit": "%"},
      {"measurement": "lymphocyte reduction", "setting": "[1]; 0.1 mg/kg", "value": 30, "unit": "%"}
    ]},
    {"smiles": "COCCCCCC1CCc2cc([C@@H]3CC[C@](N)(CO)C3)ccc2C1", "note": "(single isomer, unassigned) [Example 675]", "values": [
      {"measurement": "Percent reduction vs. control at 24 hr post-dose", "setting": "[1]; 0.1 mg/kg", "value": 63, "unit": "%"},
      {"measurement": "lymphocyte reduction", "setting": "[1]; 0.1 mg/kg", "value": 63, "unit": "%"}
    ]},
    {"smiles": "CCCCCOc1ccc2cc([C@@H]3CC[C@](N)(CO)C3)ccc2c1", "note": "[Comparative Compound 703, reference compound]", "values": [
      {"measurement": "lymphocyte reduction", "setting": "[2]; 1.0 mg/kg", "value": 52, "unit": "%"},
      {"measurement": "Mouse Blood Lymphocyte Reduction Assay at 24 hr post-dose Percent reduction vs. control", "setting": "[2]; 1.0 mg/kg", "value": 52, "unit": "%"}
    ]},
    {"smiles": "COCCCCC[C@H]1CCc2cc([C@H]3CC[C@](N)(CO)C3)ccc2C1", "note": "[Example 672, ((1R,3S)-1-amino-3-((S)-6-(5-methoxypentyl)-5,6,7,8-tetrahydronaphthalen-2-yl)cyclopentyl)methanol]", "values": [
      {"measurement": "paw swelling (mL) on day 20, Mean", "setting": "[3]; 0.1 mg/kg", "value": 2.60, "unit": "mL"},
      {"measurement": "paw swelling (mL) on day 20, Mean", "setting": "[3]; 0.3 mg/kg", "value": 1.46, "unit": "mL"},
      {"measurement": "paw swelling (mL) on day 20, Mean", "setting": "[3]; 1.0 mg/kg", "value": 0.17, "unit": "mL"},
      {"measurement": "inhibition of disease progression as measured by reduced paw swelling", "setting": "[3]", "value": "showed inhibition of disease progression"},
      {"measurement": "Percent reduction vs. control at 24 hr post-dose", "setting": "[1]; 0.1 mg/kg", "value": 47, "unit": "%"}
    ]},
    {"smiles": "COCCCCC[C@@H]1CCc2cc([C@H]3CC[C@](N)(CO)C3)ccc2C1", "note": "[Example 673, ((1R,3S)-1-amino-3-((R)-6-(5-methoxypentyl)-5,6,7,8-tetrahydronaphthalen-2-yl)cyclopentyl)methanol]", "values": [
      {"measurement": "Percent reduction vs. control at 24 hr post-dose", "setting": "[1]; 0.1 mg/kg", "value": 62, "unit": "%"}
    ]},
    {"smiles": "COc1cccc(CC[C@H]2CCc3cc([C@H]4CC[C@](N)(CO)C4)ccc3C2)c1", "note": "[Example 676, ((1R,3S)-1-amino-3-((S)-6-(3-methoxyphenethyl)-5,6,7,8-tetrahydronaphthalen-2-yl)cyclopentyl) methanol]", "values": [
      {"measurement": "Percent reduction vs. control at 24 hr post-dose", "setting": "[1]; 0.1 mg/kg", "value": 63, "unit": "%"}
    ]},
    {"smiles": "COc1cccc(CC[C@@H]2CCc3cc([C@H]4CC[C@](N)(CO)C4)ccc3C2)c1", "note": "[Example 677, ((1R,3S)-1-amino-3-((R)-6-(3-methoxyphenethyl)-5,6,7,8-tetrahydronaphthalen-2-yl)cyclopentyl)methanol]", "values": [
      {"measurement": "Percent reduction vs. control at 24 hr post-dose", "setting": "[1]; 0.05 mg/kg", "value": 49, "unit": "%"}
    ]},
    {"smiles": "CCOCCC[C@H]1CCc2cc([C@H]3CC[C@](N)(CO)C3)ccc2C1", "note": "[Example 678, ((1R,3S)-1-amino-3-((R)-6-(3-ethoxypropyl)-5,6,7,8-tetrahydronaphthalen-2-yl)cyclopentyl)methanol]", "values": [
      {"measurement": "Percent reduction vs. control at 24 hr post-dose", "setting": "[1]; 0.1 mg/kg", "value": 16, "unit": "%"},
      {"measurement": "Percent reduction vs. control at 24 hr post-dose", "setting": "[1]; 0.3 mg/kg", "value": 53, "unit": "%"},
      {"measurement": "lymphocyte reduction", "setting": "[1]; 0.1 mg/kg", "value": 16, "unit": "%"}
    ]},
    {"smiles": "CCOCCC[C@@H]1CCc2cc([C@H]3CC[C@](N)(CO)C3)ccc2C1", "note": "[Example 679, ((1R,3S)-1-amino-3-((S)-6-(3-ethoxypropyl)-5,6,7,8-tetrahydronaphthalen-2-yl)cyclopentyl)methanol]", "values": [
      {"measurement": "inhibition of disease progression as measured by clinical scores", "setting": "[4]; [6]", "value": "showed inhibition of disease progression; also recorded: inhibit disease progression"},
      {"measurement": "Clinical scores on day 21 (Mean)", "setting": "[4]; 0.6 mg/kg", "value": 2.9},
      {"measurement": "Clinical scores on day 21 (Mean)", "setting": "[4]; 3 mg/kg", "value": 1.8},
      {"measurement": "Clinical scores on day 21 (Mean)", "setting": "[4]; 15 mg/kg", "value": 1.3},
      {"measurement": "paw swelling (mL) on day 22, Mean", "setting": "[3]; 0.1 mg/kg", "value": 1.55, "unit": "mL"},
      {"measurement": "paw swelling (mL) on day 22, Mean", "setting": "[3]; 0.5 mg/kg", "value": 0.36, "unit": "mL"},
      {"measurement": "paw swelling (mL) on day 22, Mean", "setting": "[3]; 2.50 mg/kg", "value": 0.00, "unit": "mL"},
      {"measurement": "inhibition of disease progression as measured by reduced paw swelling", "setting": "[3]", "value": "showed inhibition of disease progression"},
      {"measurement": "Percent reduction vs. control at 24 hr post-dose", "setting": "[1]; 0.1 mg/kg", "value": 65, "unit": "%"},
      {"measurement": "lymphocyte reduction", "setting": "[1]; 0.1 mg/kg", "value": 65, "unit": "%"},
      {"measurement": "inhibition of disease progression as measured by reduced clinical scores", "setting": "[5]; [6]", "value": "showed inhibition of disease progression"},
      {"measurement": "Clinical Score on Day 11 (Mean)", "setting": "[5]; 0.3 mg/kg", "value": 0.36},
      {"measurement": "Clinical Score on Day 11 (Mean)", "setting": "[5]; 1.0 mg/kg", "value": 0.09},
      {"measurement": "Clinical Score on Day 11 (Mean)", "setting": "[5]; 3.0 mg/kg", "value": 0.02},
      {"measurement": "lymphocyte reduction", "setting": "[2]; 0.5 mg/kg", "value": 59, "unit": "%"},
      {"measurement": "Mouse Blood Lymphocyte Reduction Assay at 24 hr post-dose Percent reduction vs. control", "setting": "[2]; 0.5 mg/kg", "value": 59, "unit": "%"}
    ]},
    {"smiles": "COc1ccccc1CC[C@H]1CCc2cc([C@H]3CC[C@](N)(CO)C3)ccc2C1", "note": "[Example 682, ((1R,3S)-1-amino-3-((R)-6-(2-methoxyphenethyl)-5,6,7,8-tetrahydronaphthalen-2-yl)cyclopentyl)methanol]", "values": [
      {"measurement": "Percent reduction vs. control at 24 hr post-dose", "setting": "[1]; 0.1 mg/kg", "value": 17, "unit": "%"},
      {"measurement": "Percent reduction vs. control at 24 hr post-dose", "setting": "[1]; 2.0 mg/kg", "value": 83, "unit": "%"},
      {"measurement": "lymphocyte reduction", "setting": "[1]; 0.1 mg/kg", "value": 17, "unit": "%"}
    ]},
    {"smiles": "COc1cccc(OC[C@@H]2CCc3cc([C@H]4CC[C@](N)(CO)C4)ccc3C2)c1", "note": "[Example 684, ((1R,3S)-1-amino-3-((R)-6-((3-methoxyphenoxy)methyl)-5,6,7,8-tetrahydronaphthalen-2-yl)cyclopentyl)methanol]", "values": [
      {"measurement": "Percent reduction vs. control at 24 hr post-dose", "setting": "[1]; 0.05 mg/kg", "value": 72, "unit": "%"},
      {"measurement": "lymphocyte reduction", "setting": "[2]; 0.5 mg/kg", "value": 79, "unit": "%"},
      {"measurement": "Mouse Blood Lymphocyte Reduction Assay at 24 hr post-dose Percent reduction vs. control", "setting": "[2]; 0.5 mg/kg", "value": 79, "unit": "%"}
    ]},
    {"smiles": "COc1cccc(OC[C@H]2CCc3cc([C@H]4CC[C@](N)(CO)C4)ccc3C2)c1", "note": "[Example 685, ((1R,3S)-1-amino-3-((S)-6-((3-methoxyphenoxy)methyl)-5,6,7,8-tetrahydronaphthalen-2-yl)cyclopentyl)methanol]", "values": [
      {"measurement": "Percent reduction vs. control at 24 hr post-dose", "setting": "[1]; 0.1 mg/kg", "value": 55, "unit": "%"}
    ]}
  ]
}
